Where “and” joins values, the source holds several entries; their conditions need not be identical. Identical values can stand only once.
Test system: WM3248 melanoma cells, 486 antibodies
Test: Reverse phase protein arrays (RPPA)
Format: cell-based, Human
Source text: Pellets were snap frozen in liquid nitrogen and shipped to MD Anderson Cancer Center core RPPA facility for RPPA analysis (Table S5). Three biological replicates for each sample were generated.
Nomenclatures on the RPPA heatmaps: name_of_antibody.species_of_antibody.status_of_antibody. V - antibody validated; C - validation of antibody in progress; Q - antibody nonspecific; E – under evaluation; antibodies raised in M - mouse, G - goat, R - rabbit, or T - rat.

## CN(C)c1cccc(Nc2cc(-c3ccccc3)nc(C3CCNCC3)n2)c1 [ARN22089, N1,N1-dimethyl-N3-(6-phenyl-2-(piperidin-4-yl)pyrimidin-4-yl)benzene-1,3-diamine]
20 uM, single replicates
  RPPA level HSP60.R.V: 1.015 and 0.888 and 1.096
  RPPA level HSP70.R.C: 1.026 and 1.351 and 1.104
  RPPA level Hexokinase.I.R.C: 0.978 and 0.986
  RPPA level Hexokinase.II.R.V: 1.256 and 0.762 and 0.871
  RPPA level Hif.1αR.C: 0.972 and 1.096 and 0.645
  RPPA level Histone.H3.R.V: 1.540 and 13.252 and 0.726
  RPPA level Histone.H3_pS10.R.V: 1.398 and 3.688 and 0.992
  RPPA level IDO.R.C: 0.839 and 1.159
  RPPA level IGF1R_pY1135_Y1136.R.V: 0.898 and 1.026 and 1.052
  RPPA level IGFBP2.R.V: 0.627 and 0.801 and 1.270
  RPPA level IGFBP3.M.V: 0.715 and 1.003 and 1.004
  RPPA level IGFRb.R.C: 1.190
  RPPA level IL.6.R.C: 0.855 and 1.111 and 1.060
  RPPA level IMP3.R.C: 1.052 and 1.022 and 0.974
  RPPA level INPP4b.R.C: 1.077 and 0.833 and 0.806
  RPPA level IR.b.R.C: 0.907 and 1.208 and 1.333
  RPPA level IRF.1.R.V: 0.730 and 0.964 and 1.168
  RPPA level IRF.3.R.V: 0.995 and 0.906 and 0.945
  RPPA level IRS1.R.V: 1.014 and 1.159 and 1.141
  RPPA level IRS2.R.C: 1.278 and 1.343 and 1.011
  RPPA level JAB1.M.C: 0.955 and 0.936 and 1.024
  RPPA level JNK2.R.V: 0.819 and 0.805 and 1.152
  RPPA level JNK_pT183_Y185.R.C: 0.945 and 1.049 and 1.120
  RPPA level Jagged1.R.V: 0.981 and 1.189
  RPPA level Jak2.R.V: 1.014 and 1.017
  RPPA level KAP1.R.V: 1.154 and 0.878
  RPPA level KEAP1.R.V: 1.208 and 0.814 and 0.859
  RPPA level LAD1.R.V: 0.839 and 1.022 and 1.196
  RPPA level LC3A.B.R.C: 1.392 and 1.015
  RPPA level LCN2.R.V: 2.637 and 0.737 and 1.009
  RPPA level LDHA.R.C: 0.867 and 0.798 and 1.272
  RPPA level LRP6_pS1490.R.V: 0.973
  RPPA level Lasu1.R.V: 1.275 and 1.065 and 0.935
  RPPA level Lck.R.V: 1.245 and 1.124 and 1.192
  RPPA level Lyn.R.V: 1.188 and 0.948
  RPPA level MACC1.R.V: 1.006 and 1.026 and 0.991
  RPPA level MAPK_pT202_Y204.R.C: 0.788 and 0.541 and 0.701
  RPPA level MCT4.R.V: 0.646 and 0.854 and 1.188
  RPPA level MDM2_pS166.R.V: 1.371 and 1.241 and 1.078
  RPPA level MEK1.R.V: 0.858 and 3.823 and 2.342
  RPPA level MEK1_pS217_S221.R.V: 0.758 and 1.168 and 1.336
  RPPA level MEK2.R.V: 1.000 and 1.139
  RPPA level MERIT40.R.C: 0.830 and 0.763
  RPPA level MERIT40_pS29.R.V: 0.843 and 1.161
  RPPA level METTL3.R.V: 1.391 and 1.001
  RPPA level MIF.R.C: 1.003 and 0.889 and 0.956
  RPPA level MIG6.R.V: 0.962 and 1.022 and 0.982
  RPPA level MITF.R.V: 1.062 and 1.054 and 0.977
  RPPA level MLH1.M.V: 0.822 and 0.867 and 0.972
  RPPA level MLKL.R.V: 0.744 and 0.811 and 1.046
  RPPA level MMP2.R.V: 1.019 and 0.966 and 0.959
  RPPA level MMP14.R.V: 1.320 and 1.294 and 1.349
  RPPA level MR1.M.C: 0.957 and 1.152 and 0.970
  RPPA level MRAP.R.C: 0.958 and 1.263 and 1.157
  RPPA level MSH2.R.C: 0.876 and 0.877 and 0.987
  RPPA level MSH6.R.C: 1.224 and 1.204 and 1.063
  RPPA level MSI2.R.C: 1.222 and 1.004
  RPPA level MTCO1.M.V: 1.417 and 0.726
  RPPA level MTSS1.M.C: 0.974 and 1.002 and 0.966
  RPPA level Mcl.1.R.V: 0.716 and 0.788 and 1.009
  RPPA level MelanA.R.C: 1.005
  RPPA level Melanoma.gp100.R.C: 0.910 and 0.978 and 1.134
  RPPA level Merlin.R.C: 1.134 and 1.227 and 1.109
  RPPA level Midkine.R.V: 0.990 and 0.926 and 0.994
  RPPA level Mitofusin.1.R.V: 0.874 and 0.829 and 1.152
  RPPA level Mitofusin.2.R.V: 0.751 and 0.836
  RPPA level Mnk1.R.V: 0.933 and 0.905 and 1.031
  RPPA level mTOR.R.V: 0.956 and 0.920
  RPPA level mTOR_pS2448.R.C: 0.845 and 0.920 and 0.976
  RPPA p21.R.C: 1.050 and 0.570 and 0.863
  RPPA p27.Kip1.R.C: 1.342 and 1.132 and 0.997
  RPPA p27_pT157.R.C: 1.309 and 1.207 and 1.127
  RPPA p27_pT198.R.V: 1.003 and 1.297 and 1.169
  RPPA p38.MAPK.R.V: 0.937 and 0.864 and 1.143
  RPPA p38.MAPK._pT180_Y182.R.V: 0.828 and 1.168 and 1.281
  RPPA p38.a.M.V: 0.862 and 0.943
  RPPA p44.42.MAPK.R.V: 1.247 and 0.862 and 0.981
  RPPA p53.R.C: 0.928 and 1.483 and 1.058
  RPPA p70.S6K1.R.V: 1.060 and 0.948
  RPPA p70.S6K_pT389.R.V: 0.797 and 1.020 and 1.171
  RPPA p90RSK_pT573.R.C: 1.285 and 0.748 and 1.009
20 uM, single samples
  RPPA DNMT1.R.V: 0.983 and 0.756 and 0.985
  RPPA DRP1.R.V: 0.965
  RPPA DUSP6.R.C: 1.060 and 1.859 and 1.429
  RPPA DYRK1B.R.C: 1.009 and 1.052 and 0.953
  RPPA Dvl3.R.V: 0.950 and 1.123
  RPPA E2F1.R.V: 1.419 and 1.315 and 0.981
  RPPA E.Cadherin.R.V: 0.828 and 1.005
  RPPA EGFR.R.V: 1.031 and 1.102 and 1.106
  RPPA EGFR_pY1068.R.C: 0.990 and 0.986
  RPPA EGFR_pY1173.R.V: 1.027 and 1.077 and 1.112
  RPPA EMA.M.C: 0.905 and 0.939 and 0.944
  RPPA ENY2.M.C: 0.965 and 0.851 and 0.977
  RPPA ER.a.R.V: 0.767 and 0.993 and 1.203
  RPPA ERCC1.R.C: 1.137 and 1.100 and 0.957
  RPPA ERCC5.R.C: 1.157 and 0.901 and 0.984
  RPPA ERRalpha.R.V: 0.962 and 1.097 and 0.968
  RPPA EVI1.R.V: 1.169 and 1.023 and 0.918
  RPPA Elk1_pS383.R.C: 1.006 and 1.163 and 1.131
  RPPA Enolase.1.R.V: 1.058 and 0.770 and 0.988
  RPPA Enolase.2.R.V: 1.052 and 0.967 and 0.953
  RPPA EphA2.R.V: 0.650 and 0.867 and 0.932
  RPPA EphA2_pY588.R.C: 1.102 and 1.013 and 0.933
  RPPA Erk5.R.V: 0.870 and 0.876
  RPPA Ets.1.R.V: 1.428 and 0.989
  RPPA FABP5.R.C: 1.054 and 0.987 and 1.035
  RPPA FAK.R.C: 0.799 and 1.003 and 1.205
  RPPA FAK_pY397.R.V: 0.986 and 1.046 and 0.989
  RPPA FANCD2.R.V: 0.998 and 0.872 and 0.901
  RPPA FASN.R.V: 1.033 and 0.807 and 0.695
  RPPA FGF.basic.R.C: 0.959 and 0.928
  RPPA FN14.R.C: 0.830 and 1.031 and 1.337
  RPPA FOXM1.R.V: 1.401 and 0.852 and 0.917
  RPPA FOXO3.R.V: 1.030 and 0.990
  RPPA FRS2.alpha_pY196.R.V: 0.974 and 1.050 and 1.002
  RPPA FTO.R.V: 1.174 and 0.828 and 0.929
  RPPA Fibronectin.R.V: 0.643 and 1.194 and 1.130
  RPPA FoxO3a_pS318_S321.R.C: 1.008 and 0.941
  RPPA G6PD.R.V: 0.989 and 0.985 and 0.975
  RPPA GATA3.M.V: 1.212 and 0.968
  RPPA GATA6.R.V: 1.033 and 0.956 and 0.952
  RPPA GCLC.R.C: 0.868 and 1.160
  RPPA GCLM.R.V: 1.077 and 0.945 and 0.973
  RPPA GCN5L2.R.V: 0.869 and 0.957
  RPPA GGPS1.M.V: 1.005 and 0.891 and 0.957
  RPPA GRB2.R.V: 0.953 and 0.884 and 1.030
  RPPA GRB7.R.V: 0.848 and 1.110 and 1.171
  RPPA GSK.3B.R.C: 0.916 and 0.817 and 0.970
  RPPA GSK.3a.b.M.V: 1.009 and 0.884 and 0.977
  RPPA GSK.3a.b_pS21_S9.R.V: 0.956 and 1.173 and 1.028
  RPPA Gab2.R.V: 1.465 and 0.881 and 0.921
  RPPA Gli1.R.C: 0.959 and 0.928 and 0.972
  RPPA Gli3.R.C: 1.201
  RPPA Glucocorticoid.Receptor.R.V: 1.195 and 1.220 and 0.975
  RPPA Glutamate.D1.2.R.V: 1.284 and 0.987 and 1.014
  RPPA Glutaminase.R.C: 1.004 and 0.974 and 1.096
  RPPA Granzyme.B.R.V: 1.019 and 1.152 and 1.098
  RPPA Grp75.R.C: 1.682 and 0.883 and 0.952
  RPPA Gys.R.V: 0.810 and 1.025 and 1.174
  RPPA Gys_pS641.R.V: 0.658 and 0.955
  RPPA H2AX_pS140.M.C: 1.144 and 1.344 and 0.957
  RPPA HER2.M.V: 1.022 and 0.960
  RPPA HER2_pY1248.R.V: 1.010 and 1.097
  RPPA HER3.R.V: 1.052 and 0.876 and 0.821
  RPPA HER3_pY1289.R.C: 1.023 and 0.933
  RPPA HES1.R.V: 0.979 and 1.109 and 1.059
  RPPA Heregulin.R.V: 0.854 and 1.034 and 1.150
  RPPA eEF2.R.C: 1.353 and 0.930 and 0.976
  RPPA eEF2K.R.V: 1.420 and 1.250 and 1.117
  RPPA eIF4E.R.V: 0.957 and 1.295 and 1.239
  RPPA eIF4E_pS209.R.V: 0.903 and 1.310
  RPPA eIF4G.R.C: 1.450 and 0.906 and 0.991
5, average, normalized to 0
  DNMT1.R.V Norm_5 Average: 1.028
  DRP1.R.V Norm_5 Average: 1.024
  DUSP4.R.V Norm_5 Average: 1.106
  DUSP6.R.C Norm_5 Average: 1.186
  DYRK1B.R.C Norm_5 Average: 0.920
  Dvl3.R.V Norm_5 Average: 0.989
  E2F1.R.V Norm_5 Average: 0.971
  E.Cadherin.R.V Norm_5 Average: 0.851
  EGFR.R.V Norm_5 Average: 1.030
  EGFR_pY1068.R.C Norm_5 Average: 0.934
  EGFR_pY1173.R.V Norm_5 Average: 1.022
